What was measured:
[1] = system: esophageal squamous cell carcinoma KYSE-150 cells; assay: Cellular IC50 in KYSE-150 cells; format: cell-based; conditions: Homo sapiens, one class given per A and B pair
Description: Table 7 provides IC50 values of various compounds disclosed herein, tested in cellular human esophageal squamous cell carcinoma KYSE-150 cells: […]

[2] = target: JMJD2C (Homo sapiens (Human), UniProt Q9H3R0); assay: In vitro enzyme inhibition assay for JMJD2C activity (TR-FRET); format: biochemical
Description: This assay determines the ability of a test compound to inhibit JMJD2C demethylase activity. Baculovirus expressed JMJD2C (GenBank Accession #BC143571, AA 2-372) was purchased from BPS Bioscience (Cat#50105).
The ability of test compounds to inhibit the activity of JMJD2C was determined in 384-well plate format under the following reaction conditions: 0.3 nM JMJD2C, 300 nM H3K9me3-biotin labeled peptide (Anaspec cat #64360), 2 μM alpha-ketoglutaric acid in assay buffer of 50 mM HEPES, pH7.3, 0.005% Brij35, 0.5 mM TCEP, 0.2 mg/ml BSA, 50 μM sodium L-ascorbate, and 2 μM ammonium iron(II) sulfate. Reaction product was determined quantitatively by TR-FRET after the addition of detection reagent Phycolink Streptavidin-allophycocyanin (Prozyme) and Europium-anti-di-methylated histone H3 lysine 9 (H3K9me2) antibody (PerkinElmer) in the presence of 5 mM EDTA in LANCE detection buffer (PerkinElmer) at a final concentration of 50 nM and 1 nM, respectively.
(§1) The assay reaction was initiated by the following: 2 μl of the mixture of 900 nM H3K9me3-biotin labeled peptide and 6 μM alpha-ketoglutaric acid with 2 μl of 11-point serial diluted inhibitor in 3% DMSO were added to each well of the plate, followed by the addition of 2 μl of 0.9 nM JMJD2C to initiate the reaction. The reaction mixture was incubated at RT for 30 min, and terminated by the addition of 6 μl of 5 mM EDTA in LANCE detection buffer containing 100 nM Phycolink Streptavidin-allophycocyanin and 2 nM Europium-anti-H3K9me2 antibody. Plates were read by EnVisionMultilabel Reader in TR-FRET mode (excitation at 320 nm, emission at 615 nm and 665 nm) after 1 hr incubation at RT. A ratio was calculated (665/615) for each well and fitted to determine inhibition constant (IC50).

[3] = system: Jurkat cells; assay: Jurkat (T-ALL) cell line proliferation assay (Cell-MTS Assay); format: cell-based; conditions: Homo sapiens, 168 hr incubation, cell gives A/B enantiomer values, read-out: Cellular IC50
Description: The Jurkat (T-ALL) cell line proliferation assay (Cell-MTS Assay) is a colorimetric cellular assay to assess the ability of KDM small molecule inhibitors to effect the proliferation of the established human acute T cell leukemia cancer cell line Jurkat.
This Cell-MTS assay is a 7-day plate-based colorimetric assay which quantifies the amount of newly generated NADH in the presence and absence of test compound. These NADH levels are used as a proxy for the quantification of cancer cell proliferation.
The established cancer cell line Jurkat with a verified p53 mutation were purchased from American Type Culture Collection (ATCC) and routinely passaged according to ATCC published protocols. For routine assay these cells were seeded at a density of 10,000 cells per 96-well. 24 hr after plating, cells received an 11-point dilution of test compound with final concentration ranges from 10 μM to 0.15 nM. Cells were incubated in the presence of compound for 168 hr at 37° C., 5% CO2. At the end of this compound incubation period, 80 μl of media is removed and 20 μL of CellTiter 96® AQueous Non-Radioactive Cell Proliferation Assay solution (Promega) is added. The cells were incubated until the OD490 reached >0.6. IC50 values are calculated using the IDBS XLfit software package and include background subtracted OD490 values and normalization to DMSO controls. Cellular proliferation IC50 values are uploaded and archived using the Chem Biography Platform.

[4] = target: Jarid1B (Homo sapiens (Human), UniProt Q9UGL1); assay: In vitro enzyme inhibition assay for Jarid1B activity (TR-FRET); format: biochemical
Description: The ability of test compounds to inhibit the activity of Jarid1B was determined in 384-well plate format under the following reaction conditions: 0.8 nM Jarid1B, 300 nM H3K4me3-biotin labeled peptide (Anaspec cat #64357), 2 μM alpha-ketoglutaric acid in assay buffer of 50 mM HEPES, pH7.3, 0.005% Brij35, 0.5 mM TCEP, 0.2 mg/ml BSA, 50 μM sodium L-ascorbate, and 2 μM ammonium iron(II) sulfate. Reaction product was determined quantitatively by TR-FRET after the addition of detection reagent Phycolink Streptavidin-allophycocyanin (Prozyme) and Europium-anti-H3K4me or -H3K4me2 antibody (PerkinElmer) in the presence of 5 mM EDTA in LANCE detection buffer (PerkinElmer) at a final concentration of 25 nM and 1 nM, respectively.
as §1, with “nM H3K4me3-biotin” for “nM H3K9me3-biotin”, “DMSO was” for “DMSO were”, “of 2.4” for “of 0.9”, “nM Jarid1B” for “nM JMJD2C”, “containing 50” for “containing 100”, “nM Europium-anti-H3K4me/H3K4me2” for “nM Europium-anti-H3K9me2”

[5] = target: JMJD3 (Homo sapiens, UniProt O15054); assay: In vitro enzyme inhibition assay for JMJD3 activity (TR-FRET); format: biochemical
Description: This assay determines the ability of a test compound to inhibit JMJD3 demethylase activity. Baculovirus expressed JMJD3 (GenBank Accession #NM-001080424, AA1043-end) was purchased from BPS Bioscience (Cat#50115).
The enzymatic assay of JMJD3 activity is based upon Time Resolved-Fluorescence Resonance Energy Transfer (TR-FRET) detection. The ability of test compounds to inhibit the activity of JMJD3 was determined in 384-well plate format under the following reaction conditions: 5 nM JMJD3, 250 nM H3K27me3-biotin labeled peptide (Anaspec cat #64367), 0.4 to 2 μM α-ketoglutaric acid in assay buffer of 50 mM HEPES, pH7.3, 0.005% Brij35, 0.5 mM TCEP, 0.2 mg/ml BSA, 50 μM sodium L-ascorbate, and 5 μM ammonium iron(II) sulfate. Reaction product was determined quantitatively by TR-FRET after the addition of detection reagent Phycolink Streptavidin-allophycocyanin (Prozyme) and Europium-anti-H3K27me2 antibody (PerkinElmer) in the presence of 5 mM EDTA in LANCE detection buffer (PerkinElmer) at a final concentration of 50 nM and 1 nM, respectively.
The assay reaction was initiated by the following: […] of the mixture of 750 nM H3K27me3-biotin labeled peptide and 1.2 to 6 μM alpha-ketoglutaric acid with 2 μL of 11-point serial diluted inhibitor in 3% DMSO were added to each well of plate, followed by the addition of 2 μl of 15 nM JMJD3 to initiate the reaction. The reaction mixture was incubated at RT for 30 min, and terminated by the addition of 6 μL of 5 mM EDTA in LANCE detection buffer containing 100 nM Phycolink Streptavidin-allophycocyanin and 2 nM Europium-anti-H3K27me2 antibody. Plates were read by EnVisionMultilabel Reader in TR-FRET mode (excitation at 320 nm, emission at 615 nm and 665 nm) after 1 hr incubation at RT. A ratio from the readout of 665/615 was calculated for each well and fitted to determine inhibition constant (IC50).

[6] = Table 4, cell gives A/B enantiomer values
[7] = Table 5, one class given per A and B pair

Jarid1B, sequence (Q9UGL1 whole entry, species assumed): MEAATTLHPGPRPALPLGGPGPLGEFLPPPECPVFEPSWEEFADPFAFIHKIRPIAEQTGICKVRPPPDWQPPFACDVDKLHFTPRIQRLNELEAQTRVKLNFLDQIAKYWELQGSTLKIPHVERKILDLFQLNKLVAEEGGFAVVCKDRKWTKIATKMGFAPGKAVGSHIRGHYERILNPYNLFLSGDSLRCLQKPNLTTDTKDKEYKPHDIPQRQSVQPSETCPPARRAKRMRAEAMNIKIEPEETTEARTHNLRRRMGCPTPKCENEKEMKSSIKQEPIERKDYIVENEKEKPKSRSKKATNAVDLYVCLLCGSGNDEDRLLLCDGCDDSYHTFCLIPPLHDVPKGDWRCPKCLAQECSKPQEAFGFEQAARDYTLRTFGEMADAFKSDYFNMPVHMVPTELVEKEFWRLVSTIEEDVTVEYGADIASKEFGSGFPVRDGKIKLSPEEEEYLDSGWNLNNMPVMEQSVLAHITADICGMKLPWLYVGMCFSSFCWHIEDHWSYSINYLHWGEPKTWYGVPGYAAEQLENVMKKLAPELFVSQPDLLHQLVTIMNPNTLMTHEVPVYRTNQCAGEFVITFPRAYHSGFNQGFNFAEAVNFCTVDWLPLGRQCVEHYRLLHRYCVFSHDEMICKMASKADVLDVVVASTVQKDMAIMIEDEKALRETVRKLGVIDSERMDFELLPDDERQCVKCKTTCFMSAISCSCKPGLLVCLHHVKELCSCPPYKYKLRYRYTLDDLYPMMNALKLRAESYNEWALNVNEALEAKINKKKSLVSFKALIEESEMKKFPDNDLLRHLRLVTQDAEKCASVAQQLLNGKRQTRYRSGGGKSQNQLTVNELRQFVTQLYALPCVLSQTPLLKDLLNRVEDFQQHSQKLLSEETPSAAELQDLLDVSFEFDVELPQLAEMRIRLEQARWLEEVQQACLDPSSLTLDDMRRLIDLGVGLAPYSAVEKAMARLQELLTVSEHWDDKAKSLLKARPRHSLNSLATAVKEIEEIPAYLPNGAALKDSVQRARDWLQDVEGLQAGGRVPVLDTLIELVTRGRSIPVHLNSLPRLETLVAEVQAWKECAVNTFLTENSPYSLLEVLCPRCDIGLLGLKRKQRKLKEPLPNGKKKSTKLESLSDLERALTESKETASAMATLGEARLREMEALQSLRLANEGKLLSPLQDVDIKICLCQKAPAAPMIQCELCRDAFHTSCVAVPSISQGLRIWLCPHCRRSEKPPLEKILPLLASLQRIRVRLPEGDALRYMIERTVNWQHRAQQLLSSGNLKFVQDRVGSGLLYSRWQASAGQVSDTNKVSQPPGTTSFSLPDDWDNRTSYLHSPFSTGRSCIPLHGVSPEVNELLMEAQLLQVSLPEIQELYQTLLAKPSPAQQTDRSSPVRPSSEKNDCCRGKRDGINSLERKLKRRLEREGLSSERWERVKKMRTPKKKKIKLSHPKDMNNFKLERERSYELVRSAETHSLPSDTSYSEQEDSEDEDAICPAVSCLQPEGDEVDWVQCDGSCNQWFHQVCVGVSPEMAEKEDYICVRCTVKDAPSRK
JMJD2C, sequence (Q9H3R0 2-372): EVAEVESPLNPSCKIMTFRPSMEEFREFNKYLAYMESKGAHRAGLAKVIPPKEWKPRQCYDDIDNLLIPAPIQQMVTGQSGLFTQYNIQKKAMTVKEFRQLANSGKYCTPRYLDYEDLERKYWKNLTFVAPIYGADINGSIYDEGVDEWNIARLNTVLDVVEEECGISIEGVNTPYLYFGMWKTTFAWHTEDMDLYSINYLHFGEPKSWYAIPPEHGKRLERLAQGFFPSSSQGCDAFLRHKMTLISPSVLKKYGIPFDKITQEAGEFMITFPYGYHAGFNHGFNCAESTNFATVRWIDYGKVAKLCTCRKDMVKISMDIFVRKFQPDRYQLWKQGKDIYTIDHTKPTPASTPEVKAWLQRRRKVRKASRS

Cc1ccc(N(C)c2ccc3c(c2)CCN[C@@H]3CNc2cnccc2C(=O)O)cc1 [Example 1A, 3-[({(1S)-6-[methyl(4-methylphenyl)amino]-1,2,3,4-tetrahydroisoquinolyl}methyl)amino]pyridine-4-carboxylic acid]
IC50 [1]: 1 to 10 µM | IC50 [2, 6]: 0.1 to 1 µM | IC50 [2, 7]: 0.1 to 1 µM | IC50 [3]: ≤ 0.1 µM | IC50 [4, 6]: ≤ 0.1 µM | IC50 [4, 7]: ≤ 0.1 µM

Cc1cc(OCC(F)(F)F)ccc1-c1ccc2c(c1)CCN[C@@H]2CNc1cnccc1C(=O)O [Example 2A, 3-[({(1S)-6-[2-methyl-4-(2,2,2-trifluoro-ethoxy)phenyl]-1,2,3,4-tetrahydro-isoquinolyl}methyl)amino]pyridine-4-carboxylic acid]
IC50 [1]: > 10 µM | IC50 [2, 6]: 1 to 10 µM | IC50 [2, 7]: 1 to 10 µM | IC50 [3]: 0.1 to 1 µM | IC50 [5, 6]: 1 to 10 µM | IC50 [5, 7]: 1 to 10 µM | IC50 [4, 6]: ≤ 0.1 µM | IC50 [4, 7]: ≤ 0.1 µM

Cc1cc(OCC(F)(F)F)ccc1-c1ccc2c(c1)CCN[C@H]2CNc1cnccc1C(=O)O [Example 2B, 3-[({(1R)-6-[2-methyl-4-(2,2,2-trifluoroethoxy)phenyl]-1,2,3,4-tetrahydroisoquinolyl)methyl)amino]pyridine-4-carboxylic acid]
IC50 [1]: > 10 µM | IC50 [2, 6]: 1 to 10 µM | IC50 [2, 7]: 1 to 10 µM | IC50 [3]: 0.1 to 1 µM | IC50 [5, 6]: 1 to 10 µM | IC50 [5, 7]: 1 to 10 µM | IC50 [4, 6]: ≤ 0.1 µM | IC50 [4, 7]: ≤ 0.1 µM

CCc1ccc(N(C)c2ccc3c(c2)CN(C)[C@@H]3CNc2cnccc2C(=O)O)cc1 [Example 19B, (S)-3-(((5-((4-ethylphenyl)(methyl)amino)-2-methylisoindolin-1-yl)methyl)amino)isonicotinic acid]
IC50 [1]: ≤ 0.1 µM | IC50 [2, 7]: 0.1 to 1 µM | IC50 [5, 7]: 1 to 10 µM | IC50 [4, 7]: ≤ 0.1 µM

CCCc1ccc(N(C)c2ccc3c(c2)CN(C)[C@H]3CNc2cnccc2C(=O)O)cc1 [Example 20A, (R)-3-(((2-methyl-5-(methyl (4-propylphenyl)amino)isoindolin-1-yl)methyl)amino)isonicotinic acid]
IC50 [1]: ≤ 0.1 µM | IC50 [2, 7]: 0.1 to 1 µM | IC50 [5, 7]: 1 to 10 µM | IC50 [4, 7]: ≤ 0.1 µM

CCCc1ccc(N(C)c2ccc3c(c2)CN(C)[C@@H]3CNc2cnccc2C(=O)O)cc1 [Example 20B, (S)-3-(((2-methyl-5-(methyl (4-propylphenyl)amino)isoindolin-1-yl)methyl)amino)isonicotinic acid]
IC50 [1]: ≤ 0.1 µM | IC50 [2, 7]: 0.1 to 1 µM | IC50 [5, 7]: 1 to 10 µM | IC50 [4, 7]: ≤ 0.1 µM

Cc1ccccc1-c1ccc2c(c1)CN(C)[C@H]2CNc1cnccc1C(=O)O [Example 21A, (R)-3-(((2-methyl-5-(o-tolyl)isoindolin-1-yl)methyl)amino)isonicotinic acid]
IC50 [1]: ≤ 0.1 µM | IC50 [2, 7]: 0.1 to 1 µM | IC50 [5, 7]: 1 to 10 µM | IC50 [4, 7]: ≤ 0.1 µM

Cc1ccccc1-c1ccc2c(c1)CN(C)[C@@H]2CNc1cnccc1C(=O)O [Example 21B, (S)-3-(((2-methyl-5-(o-tolyl)isoindolin-1-yl)methyl)amino)isonicotinic acid]
IC50 [1]: ≤ 0.1 µM | IC50 [2, 7]: 0.1 to 1 µM | IC50 [5, 7]: 1 to 10 µM | IC50 [4, 7]: ≤ 0.1 µM

CCc1ccccc1-c1ccc2c(c1)CN(C)[C@H]2CNc1cnccc1C(=O)O [Example 22A, (R)-3-(((5-(2-ethylphenyl)-2-methyl-isoindolin-1-yl)methyl)amino) isonicotinic acid]
IC50 [1]: ≤ 0.1 µM | IC50 [2, 7]: 0.1 to 1 µM | IC50 [5, 7]: 1 to 10 µM | IC50 [4, 7]: ≤ 0.1 µM

CCc1ccccc1-c1ccc2c(c1)CN(C)[C@@H]2CNc1cnccc1C(=O)O [Example 22B, (S)-3-(((5-(2-ethylphenyl)-2-methyl-isoindolin-1-yl)methyl)amino) isonicotinic acid]
IC50 [1]: ≤ 0.1 µM | IC50 [2, 7]: 0.1 to 1 µM | IC50 [5, 7]: 1 to 10 µM | IC50 [4, 7]: ≤ 0.1 µM

— patent publication US10059687B2, “Histone demethylase inhibitors” (CELGENE QUANTICEL RESEARCH, INC., priority 2015, dated 2018)
